# US6011010A, “Cytotoxic and antiviral compound” (Pharma Mar, s.a., priority 1997, dated 2000)
# How the values were obtained:
# Saccharomyces cerevisiae = conditions: 50 μg/disk
# [1] = In vitro cytotoxicity, human lung carcinoma A-549 cell culture; assay type: cell-based; conditions: read-out: Cytotoxicity μg/mL (IC50)
# Description: (§1) The antitumor activities of this compound have been determinated "in vitro" in cell cultures of human lung carcinoma A-549 and human colon carcinoma HT-29. The procedure was carried out using the methodology described by Raymond J. Bergeron et al., Biochem. Biophys. Res. Comm. 1984, 121 (3), 848-854 and by Alan C. Schroeder et al., J. Med. Chem. 1981, […] 1078-1083.
# [2] = In vitro cytotoxicity, human colon carcinoma HT-29 cell culture; assay type: cell-based; conditions: read-out: Cytotoxicity μg/mL (IC50)
# Description: as §1
# HSV II = conditions: Mv 1 Lu cells
# HSV-1 = conditions: CV-1 cells
smiles,measurement,setting,value
C/C=C1\NC(=O)[C@H](Cc2ccccc2)NC(=O)[C@@H](C(C)C)NC(=O)[C@@H]([C@@H](C)CC)NC(=O)[C@H](NC(=O)[C@H](NC(=O)[C@H](CCCN)NC(=O)[C@H]2CCCN2C(=O)[C@H](NC(=O)[C@@H](NC(=O)[C@@H](NC(=O)[C@H](NC(=O)CCCC(C)C)C(C)C)[C@@H](C)O)C(C)C)C(C)C)[C@@H](C)CC)[C@@H](C)OC(=O)[C@H](C(C)C)NC1=O [Kahalalide F],Antifungal 6 mm disk (zone),Saccharomyces cerevisiae,neg
same,IC50,[1],2.5 µg/mL
same,IC50,[2],0.25 to 0.5 µg/mL
same,Antiviral % reduction,HSV II; at 0.5 μg/mL,95%
same,Antiviral μg/mL (M.I.C.),HSV II; concentration giving the printed % reduction,0.5 µg/mL
same,Antiviral μg/mL (M.I.C.),HSV-1,> 8 µg/mL
same,Antiviral μg/mL (M.I.C.),VSV,> 8
